Patent publication US20080312209A1, “Piperazine Heteroaryl Derivatives as Gpr38 Agonists” (Glaxo Group Limited, priority 2005, published 2008)

What was measured:
hGPR38R [1] = target: T1, hGPR38R (Homo sapiens, UniProt O43193); assay: GPR38 GTPγS functional agonist assay; format: biochemical; design: expressed in transfected cells; host or cells: HEK293 (transient transfection; P2 membrane fractions)
Description: The potencies and intrinsic activities of the compounds of this invention can also be determined according to the [35S]GTPγS functional assay which is described herein. It has been found, using the [35S]GTPγS functional assay, that compounds of formula (I) appear to be partial or full agonists of the GPR38 receptor.
GPR38GTPγS Functional Agonist Assay Protocol
For each compound being assayed, in an Opti clear bottom 96 well plate, is added:—
(a) 20 μl of test compound (or 10 μl of guanosine 5′-triphosphate (GTP) as non-specific binding control) diluted to required concentration in assay buffer (20 mM N-2-Hydroxyethylpiperazine-N′-2-ethanesulfonic acid (HEPES)+100 mM NaCl+10 mM MgCl2, pH adjusted to 7.4 with NaOH); (b) 60 μl bead/membrane/GDP mix prepared by suspending wheat germ agglutinin-polyvinyltoluene (WGA-PVT) scintillation proximity assay (SPA) beads at 100 mg/ml in assay buffer followed by mixing with membrane (prepared in accordance with the methodology described above) and diluting in assay buffer to give a final volume of 60 μl which contains 10 μg protein and 0.5 mg bead per well—mixture is pre-mixed at 4° C. for 30 min on a roller and just prior to addition to the plate, 10 μM final concentration of guanosine 5′ diphosphate (GDP—diluted in assay buffer) is added; (c) 20 μl guanosine 5′ [γ35-S]thiotriphosphate, triethylamine salt (Amersham; radioactivity concentration=37 kBq/μl or 1 mCi/ml; Specific Activity 1160 Ci/mmol) diluted to 1.9 nM in assay buffer to give 0.38 nM final.
The plate is incubated on a shaker at 25° C. for 30 min followed by centrifugation for 5 min at 1500 rpm. The plate is read between 3 and 6 h after completion of centrifuge run in a Wallac Microbeta counter on a 1 min normalised tritium count protocol. Data is analysed using a 4-parameter logistic equation. Basal activity used as minimum.
(§1) The following alternative procedure may also be used:
Membranes are derived from bulk cell cultures of HEK293 cell lines transiently transfected with hGPR38R and Go G-protein. P2 membranes fractions are prepared, aliquoted and stored at −80° C.
For each compound being assayed, the following is added into a white Greiner 384 well plate:—
(a) 1 μl of test compound diluted to required concentration in DMSO. (b) 20 μl bead/membrane/Saponin/GDP mix prepared as follows;—suspension of LEADseeker wheat germ agglutinin (WGA) scintillation proximity assay (SPA) beads at 25 mg/ml in assay buffer (20 mM N-2-Hydroxyethylpiperazine-N′-2-ethanesulfonic acid (HEPES)+100 mM NaCl+10 mM MgCl2, pH adjusted to 7.4 with KOH) containing saponin at 150 ug/ml. Mixing of bead suspension with membranes at 500 ug/ml (prepared in accordance with the methodology described above) and diluting in assay buffer to give a final volume of 20 μl which contains 5 μg protein and 0.25 mg bead per well.
Mixture is pre-mixed for 30 minutes on a roller and just prior to addition to the plate, 3 μM final assay concentration of guanosine 5′ diphosphate (GDP) (diluted in assay buffer) is added.
(c) 25 μl guanosine 5′ [γ35-S]thiotriphosphate, triethylamine salt (Amersham; radioactivity concentration=37 kBq/μl or 1 mCi/ml; Specific Activity 1160 Ci/mmol) diluted to 0.6 nM in assay buffer to give 0.33 nM final assay concentration.
The plate is then spun for 2 minutes at 1500 rpm and then incubated at room temperature for 4 hours. The plate is then read on a Viewlux Plux (Perkin Elmer). Data is analysed using a 4-parameter logistic equation.
Target sequence in this assay (O43193 whole entry): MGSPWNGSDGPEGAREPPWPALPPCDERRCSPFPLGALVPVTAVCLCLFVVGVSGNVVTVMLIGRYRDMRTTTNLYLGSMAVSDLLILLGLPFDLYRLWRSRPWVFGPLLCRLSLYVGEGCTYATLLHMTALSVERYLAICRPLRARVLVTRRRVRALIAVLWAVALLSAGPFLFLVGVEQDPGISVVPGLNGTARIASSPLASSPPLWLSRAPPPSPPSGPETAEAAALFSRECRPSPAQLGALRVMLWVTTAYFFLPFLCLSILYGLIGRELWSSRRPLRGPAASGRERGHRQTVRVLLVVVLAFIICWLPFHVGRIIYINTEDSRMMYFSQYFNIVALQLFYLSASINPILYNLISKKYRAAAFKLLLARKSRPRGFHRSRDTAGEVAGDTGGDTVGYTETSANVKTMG
Target sequence in this assay (P09471 2-354 partner limits assumed): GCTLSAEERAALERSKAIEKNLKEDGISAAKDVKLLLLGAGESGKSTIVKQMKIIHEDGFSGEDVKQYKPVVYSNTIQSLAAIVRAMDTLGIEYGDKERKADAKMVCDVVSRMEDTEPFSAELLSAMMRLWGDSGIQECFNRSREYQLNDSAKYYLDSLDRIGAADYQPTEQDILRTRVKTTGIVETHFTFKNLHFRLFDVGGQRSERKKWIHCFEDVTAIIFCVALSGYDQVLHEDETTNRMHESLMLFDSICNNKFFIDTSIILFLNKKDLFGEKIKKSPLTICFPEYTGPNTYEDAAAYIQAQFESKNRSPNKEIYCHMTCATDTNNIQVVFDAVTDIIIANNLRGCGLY
Target sequence in this assay (P62873 2-340 partner limits assumed): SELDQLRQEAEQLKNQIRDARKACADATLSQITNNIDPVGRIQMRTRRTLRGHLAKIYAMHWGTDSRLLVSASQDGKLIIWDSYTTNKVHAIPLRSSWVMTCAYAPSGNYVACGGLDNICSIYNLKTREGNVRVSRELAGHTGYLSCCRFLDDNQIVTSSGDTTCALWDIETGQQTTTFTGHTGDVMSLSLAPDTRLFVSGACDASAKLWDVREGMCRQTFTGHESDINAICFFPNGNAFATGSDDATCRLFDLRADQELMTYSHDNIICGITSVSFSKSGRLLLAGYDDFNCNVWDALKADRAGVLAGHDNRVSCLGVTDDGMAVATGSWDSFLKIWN
Target sequence in this assay (P59768 2-68 partner limits assumed): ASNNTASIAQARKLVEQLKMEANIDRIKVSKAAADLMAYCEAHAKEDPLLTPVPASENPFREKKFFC

hGPR38R [2] = target: T1, hGPR38R; assay: GPR38 FLIPR functional agonist assay; format: cell-based; design: expressed in transfected cells; conditions: HEK-293 cells stably expressing the GPR38 receptor, agonist response, Fluo-4 fluorescence
Description: The potencies and efficacies of the compounds of this invention for GPR^38 can be determined by FLIPR assay performed on the human cloned receptor as described herein. It has been found, using the FLIPR functional assay, that compounds of formula (I) appear to be partial or full agonists of the GPR38 receptor.
GPR38FLIPR Functional Agonist Assay Protocol
HEK-293 cells stably expressing the GPR38 receptor were seeded (10,000 cells/well) into poly-D-lysine coated 384-well black-wall, clear-bottom microtitre plates (Becton Dickinson) 24 h prior to assay. On day of assay, cells were washed (×2) with 80 ul of assay buffer (Hanks Balanced Salts Solution (HBSS), 10 mM HEPES, 200 μM Ca^2+, 2.5 mM probenecid) using the EMBLA cell washer. After the final wash, buffer was aspirated to leave a residual volume of 30 ul on the cells. Cells were loaded with 1 μM (final) Fluo-4-AM fluorescent indicator dye (TefLabs) in assay buffer, (20 ul loading solution added to each well using the Multidrop). Plates were incubated for 1 h at 37° C., before being washed (×3) with 80 ul assay buffer using the EMBLA cell washer; 30 ul residual being left after the final wash. Plates were then assayed on a Fluorometric Imaging Plate Reader (FLIPR, Molecular Devices). Test compounds were prepared in assay buffer without probenecid, but containing 0.03% CHAPS. In the FLIPR, 10 ul of test compound was added to the cells and changes in fluorescence measured over a 2 min timeframe. Maximum change in fluorescence over baseline was used to determine agonist response and concentration response curves were constructed, using a 4-parameter logistic equation.
as §1
Target sequence in this assay (O43193 whole entry): as the sequence (O43193 whole entry) above
HEK-293 cells stably expressing the GPR38 receptor were seeded (30,000 cells/100 ul growth media/well) into poly-D-lysine coated 96-well black-wall, clear-bottom microtitre plates (Corning) 24 hours prior to assay. On the day of assay the cells were loaded with 2 μM (final) Fluo-4-AM fluorescent indicator dye (Molecular Probes) and 1 mM (final) probenicid in assay buffer (145 mM sodium chloride, 2.5 mM potassium chloride, 10 mM Hepes, 10 mM glucose, 1.2 mM magnesium chloride, 1.5 mM calcium chloride and 0.1% BSA) (50 ul loading solution added to each well). Plates were incubated for 1 hour at 25° C., before being washed 4 times with 100 ul assay buffer using the EMBLA cell washer; 150 ul residual being left after the final wash. The cells were then incubated at 25° C. for 20 minutes and the plates were then assayed on a Fluorometric Imaging Plate Reader (FLIPR, Molecular Devices). Test compounds were prepared in assay buffer without probenecid. In the FLIPR, 50 ul of test compound was added to the cells and changes in fluorescence measured over a 2 minute timeframe. Maximum change in fluorescence over baseline was used to determine agonist response and concentration response curves were constructed, using a 4-parameter logistic equation.

[3] = [35S]GTPγS SPA, HEK293 membranes with hGPR38R and Go G-protein, read-out: pEC50 in the GTPγS assay (converted)
[4] = read-out: pEC50 in the FLIPR assay (converted)

| SMILES | EC50 (hGPR38R [1]) [µM] | EC50 (hGPR38R [2]; pEC50 in the FLIPR assay) [µM] | EC50 (hGPR38R [1]; [3]) [µM] | EC50 (hGPR38R [2]; [4]) [µM] |
| --- | --- | --- | --- | --- |
| C[C@@H]1CN(Cc2ccc(-c3cccnc3C(=O)N3CCC(Nc4ccc(F)c(F)c4)CC3)cc2)C[C@H](C)N1 [Example 15, N-(3,4-difluorophenyl)-1-{[3-(4-{[(3R,5S)-3,5-dimethyl-1-piperazinyl]methyl}phenyl)-2-pyridinyl]carbonyl}-4-piperidinamine] | < 3.16 | < 0.316 |  |  |
| C[C@@H]1CN(Cc2ccc(-c3cccnc3C(=O)N3CCC(Oc4cccc(F)c4)CC3)cc2)C[C@H](C)N1 [Example 34, (3R,5S)-1-({4-[2-({4-[(3-fluorophenyl)oxy]-1-piperidinyl}carbonyl)-3-pyridinyl]phenyl}methyl)-3,5-dimethylpiperazine] |  |  | < 3.16 | < 0.316 |
| C[C@@H]1CN(Cc2ccc(-c3cccnc3C(=O)N3CCC(Nc4cccc(F)c4)C3)cc2)C[C@H](C)N1 (stereo partly drawn) [Example 33, 1-{[3-(4-{[(3R,5S)-3,5-dimethyl-1-piperazinyl]methyl}phenyl)-2-pyridinyl]carbonyl}-N-(3-fluorophenyl)-3-pyrrolidinamine] |  |  | < 3.16 | < 0.316 |
| Cc1nc(C(=O)N2CCC(Cc3ccc(F)cc3)CC2)c(-c2ccc(CN3C[C@@H](C)N[C@@H](C)C3)cc2)s1 [Example 4, (3R,5S)-3,5-Dimethyl-1-({4-[4-({4-[(4-fluorophenyl)methyl]piperidin-1-yl}carbonyl)-2-methyl-1,3-thiazol-5-yl]phenyl}methyl)piperazine] |  |  | < 3.16 |  |
| C[C@@H]1CN(Cc2ccc(-c3cccnc3C(=O)N3CC[C@H](Oc4ccc(F)cc4)C3)cc2)C[C@H](C)N1 [Example 18, (3R,5S)-1-({4[2-({(3S)-3-[(4-fluorophenyl)oxy]-1-pyrrolidinyl}carbonyl)-3-pyridinyl]phenyl}methyl)-3,5-dimethylpiperazine] |  |  | < 3.16 | < 0.316 |
| C[C@@H]1CN(Cc2ccc(-c3cccnc3C(=O)N3CCC(Nc4cccc(C#N)c4)CC3)cc2F)C[C@H](C)N1 [Example 30, 3-[(1-{[3-(4-{[(3R,5S)-3,5-dimethyl-1-piperazinyl]methyl}-3-fluorophenyl)-2-pyridinyl]car-bonyl}-4-piperidinyl)amino]benzonitrile] |  |  | < 3.16 |  |
| Cc1nc(C(=O)N2CCC(Nc3ccc(F)cc3)CC2)c(-c2ccc(CN3C[C@@H](C)N[C@@H](C)C3)cc2)s1 [Example 5] | < 3.16 |  |  |  |
| Cc1nc(CN(C)C(=O)COc2ccc(F)cc2)c(-c2ccc(CN3C[C@@H](C)N[C@@H](C)C3)cc2)s1 [Example 7, N-{[5-(4-{[(3R,5S)-3,5-dimethyl-1-piperazinyl]methyl}phenyl)-2-methyl-1,3-thiazol-4-yl]methyl}-2-[(4-fluorophenyl)oxy]-N-methylacetamide] |  |  | < 3.16 |  |
| C[C@@H]1CN(Cc2ccc(-c3cccnc3C(=O)N3CCC(Nc4cccc(F)c4)CC3)cc2)C[C@H](C)N1 [Example 10, 1-{[3-(4-{[(3R,5S)-3,5-dimethyl-1-piperazinyl]methyl}phenyl)-2-pyridinyl]carbonyl}-N-(3-fluorophenyl)-4-piperidinamine] | < 3.16 | < 0.316 |  |  |
| C[C@@H]1CN(Cc2ccc(-c3cccnc3C(=O)N3CCC(Nc4cccc(C#N)c4)CC3)cc2)C[C@H](C)N1 [Example 29, 3-[(1-{[3-(4-{[(3R,5S)-3,5-dimethyl-1-piperazinyl]methyl}phenyl)-2-pyridinyl]carbonyl}-4-piperidinyl)amino]benzonitrile] |  |  | < 3.16 | < 0.316 |
| C[C@H]1CN(Cc2ccc(-c3cccnc3C(=O)N3CCC(Nc4cccc(F)c4)CC3)cc2)CCN1 [Example 14, N-(3-fluorophenyl)-1-{[3-(4-{[(3S)-3-methyl-1-piperazinyl]methyl}phenyl)-2-pyridinyl]carbonyl}-4-piperidinamine] | < 3.16 | < 0.316 |  |  |
| C[C@@H]1CN(Cc2ccc(-n3ccnc3C(=O)N3CCC(Nc4ccc(F)cc4)CC3)cc2F)C[C@H](C)N1 [Example 24, 1-{[1-(4-{[(3R,5S)-3,5-dimethyl-1-piperazinyl]methyl}-3-fluorophenyl)-1H-imidazol-2-yl]carbonyl}-N-(4-fluorophenyl)-4-piperidinamine] | < 3.16 |  |  |  |
| C[C@@H]1CN(Cc2ccc(-c3cccnc3C(=O)N3CCC(Oc4cccc(F)c4)CC3)cc2F)C[C@H](C)N1 [Example 35, (3R,5S)-1-({2-fluoro-4-[2-({4-[(3-fluorophenyl)oxy]-1-piperidinyl}carbonyl)-3-pyridinyl]phenyl}methyl)-3,5-dimethylpiperazine] |  |  |  | < 0.316 |
| C[C@@H]1CN(Cc2ccc(-n3ccnc3C(=O)N3CCC(Nc4ccccc4F)CC3)cc2)C[C@H](C)N1 [Example 23, 1-{[1-(4-{[(3R,5S)-3,5-dimethyl-1-piperazinyl]methyl}phenyl)-1H-imidazol-2-yl]carbonyl}-N-(2-fluorophenyl)-4-piperidinamine] | < 3.16 |  |  |  |
| C[C@@H]1CN(Cc2ccc(-n3ccnc3C(=O)N3CCC(Nc4cccc(F)c4)CC3)cc2F)C[C@H](C)N1 [Example 25, 1-{[1-(4-{[(3R,5S)-3,5-dimethyl-1-piperazinyl]methyl}-3-fluorophenyl)-1H-imidazol-2-yl]carbonyl}-N-(3-fluorophenyl)-4-piperidinamine] | < 3.16 |  |  |  |
| C[C@@H]1CN(Cc2ccc(-c3cccnc3C(=O)N3CCC(Nc4cc(F)cc(F)c4)CC3)cc2F)C[C@H](C)N1 [Example 27, N-(3,5-difluorophenyl)-1-{[3-(4-{[(3R,5S)-3,5-dimethyl-1-piperazinyl]methyl}-3-fluorophenyl)-2-pyridinyl]carbonyl}-4-piperidinamine] | < 3.16 |  |  |  |
